A short description of experiment [1]: Test 2: inducing period of linoleic acid oxidation (days until absorbance of 0.2 is exceeded). The format is biochemical. The following applies: single addition, final concentration 0.1% in linoleic acid. Here is the method:
The following 11 kinds of sample were prepared.
Sample 2: A sample prepared by adding a hydrolysate of lactoferrin (prepared by the same method as in the Example 2) to linoleic acid to achieve a final concentration of 0.1%;
Sample 3: A sample prepared by adding peptides (prepared by the same method as in the Example 3) to linoleic acid to achieve a final concentration of 0.1%;
Sample 4: A sample prepared by adding vitamin E (dl-α tocopherol the same one as in the Test 1) to linoleic acid to achieve a final concentration of 0.1%;
Sample 5: A sample prepared by adding superoxide dismutase (manufactured by Sigma Company) to linoleic acid to achieve a final concentration of 0.1%;
Sample 6: A sample prepared by adding β-carotene (manufactured by Nakaraitesk Company) to linoleic acid to achieve a final concentration of 0.1%;
Sample 7: A sample prepared by adding vitamin C (manufactured by Nakaraitesk Company) to linoleic acid to achieve a final concentration of 0.1%; […]
Absorbance was measured by the same method as in the Test 1, and with the number of days until an absorbance of 0.2 is exceeded as the inducing period, antioxidant effect was tested.

A short description of experiment [2]: Test 1: antioxidant effect on linoleic acid, peroxides by ferric thiocyanate method. The format is biochemical. The following applies: 0.2% added to linoleic acid, 60° C. Here is the method: A sample was prepared by adding dl-α tocopherol (manufactured by Wako Jun-yaku Kogyo Company), bovine lactoferrin (manufactured by Sigma Company), hydrolysate of lactoferrin (prepared by the same method as in the Example 2), or peptide (prepared by the same method as in the Example 3) to a final concentration of 0.2% (weight percentage; same applies hereafter except for the degree of decomposition) to commercially available linoleic acid (manufactured by Wako Jun-Yaku Kogyo Company) containing no additive. Hereafter, the thus prepared samples are individually referred to as […].
Antioxidant effect of the individual samples was tested by the method of Mitsuda et al.(Eiyo to Shokuryo, Vol. 19, p. 210, 1966) described below.
The above-mentioned samples were added to a mixed solution containing 10 ml of ethanol, 10 ml of 0.1M phosphate buffer solution (pH: 7.0), and 5 ml of deionized water so as to achieve a final concentration of linoleic acid of […](mol/l). This solution was placed in a vial bottle having a capacity of 50 ml, and the closely plugged bottle was held in an incubator at 60° C. The total volume was always adjusted to 25 ml by reducing the above-mentioned ionized water, depending upon the quantity of added sample. At prescribed time intervals, 0.1 ml was sampled from this vial bottle to measure the quantity of peroxides by the following ferric thiocyanate method.
To the sample solution in an amount of 0.1 ml, 4.7 ml of 75% ethanol, 0.1 ml of 30% ammonium rhodanide, and 0.1 ml of 3.5% hydrochloric acid solution of 2×10^-2 M ferrous chloride were added, and absorbance at 500 nm was measured upon the lapse of just three minutes.

In experiment [1], `CC1=C(/C=C/C(C)=C/C=C/C(C)=C/C=C/C=C(C)/C=C/C=C(C)/C=C/C2=C(C)CCCC2(C)C)C(C)(C)CCC1` [β-carotene] had an Inducing period of 14 days.

In experiment [1], `O=C1O[C@H]([C@@H](O)CO)C(O)=C1O` [Vitamin C, ascorbic acid] came in with an Inducing period of 8 days.

In experiment [1], Superoxide dismutase gave an Inducing period of 10 days.

As for `Cc1c(C)c2c(c(C)c1O)CCC(C)(CCCC(C)CCCC(C)CCCC(C)C)O2` (racemic) [Sample 2, dl-α tocopherol], the “Degree of peroxidation (absorbance at 500 nm)” value amounted to 0 in experiment [2] (period of preservation 0 days); 0.19 in experiment [2] (period of preservation 3 days); 0.16 in experiment [2] (period of preservation 6 days); 0.16 in experiment [2] (period of preservation 10 days); 0.21 in experiment [2] (period of preservation 13 days). The Inducing period in experiment [1] turned out to be 8 days.

(Values after patent US5804555A, “Antioxidant” (Morinaga Milk Industry Co., Ltd., priority 1992, dated 1998).)
